Test results as given in patent US7560453B2, “6-(2, 3, 4, 5-tetrahydro-1H-benzo [D] azepin-7-yloxy) -nicotamide derivatives as radio labelled ligands” (Glaxo Group Limited, priority 2005, dated 2009).

How the values were obtained:
histamine H3 receptor [1] = assay: PET imaging with Compound A in pig brain; assay type: in vivo
Description: The animals (pig, Yorkshire/Danish Landrace (˜40 Kg; n=2) were housed singly in thermostatically controlled (20° C.) and naturally illuminated stalls. They were scanned under terminal anaesthesia (ketamine induced isoflurane anaesthesia) on different days. The left femoral artery and vein of each animal were surgically cannulated using catheters (Avanti® size 4F-7F). Blood samples were collected from the femoral artery and the radiolabelled and non-labelled agents were injected to the femoral vein. Animals were placed supine in a Siemens ECAT EXACT HR tomograph, with the head immobilized in a custom-made holding device. During the study, blood pH, pCO2 and pO2 levels were monitored and maintained within the normal physiological range. In addition, BP and heart rate were recorded throughout the study. Compound A was administered intravenously in the femoral vein as a 1 minute bolus injection. PET scanning and arterial blood sampling was commenced upon start of the radioligand administration.

histamine H3 receptors = details: prior art radioligands; cited from earlier work
histamine H3 receptor [2] = assay: PET imaging with pharmacological challenges (blocking of Compound A uptake); assay type: in vivo, pig
Description: Four sequential high specific activity iv radioligand Compound A administrations were performed in same animal, same day. Following a baseline scan, Compound A was co-administered with escalating dose of unlabelled unlabelled compound A (0.005, 0.05 and 0.5 mg/kg). [^15O]CO and [^15O]H2O were administered pre and post administration of unlabelled compound A to monitor and to correct for changes in cerebral blood volume and changes in cerebral blood flow. […] A similar experiment was performed using escalating dose of ciproxifan (0.006, 0.06, 0.6 and 2.0 mg/kg), a known selective histamine H3 antagonist.

Human receptor H2 = Human receptor H2 (Homo sapiens, UniProt P25021); assay: Binding affinity, human H2 receptor; details: read-out: Binding affinity (pKi), human H2 (converted)
Human receptor H1 = Human receptor H1 (Homo sapiens, UniProt P35367); assay: Binding affinity, human H1 receptor; details: read-out: Binding affinity (pKi), human H1 (converted)
Human receptor H4 = Human receptor H4 (Homo sapiens, UniProt Q9H3N8); assay: Binding affinity, human H4 receptor; details: read-out: Binding affinity (pKi), human H4 (converted)
[3] = molecular target: T1, human histamine H3 receptor (Homo sapiens, UniProt Q9Y5N1); assay: Competition binding assay using [125I]iodoproxifan, cell lines stably expressing human histamine H3 receptor
T1 construct: expressed in transfected cells
Description: The in vitro affinity of unlabelled Compound A for the histamine H3 receptor was determined by competition assay using [^125I]iodoproxifan as radioligand binding to cell lines stably expressing human histamine H3 receptor.^13

[4] = 2.0 mg/kg ciproxifan, 85 min post-injection

T1 sequence (Q9Y5N1 whole entry): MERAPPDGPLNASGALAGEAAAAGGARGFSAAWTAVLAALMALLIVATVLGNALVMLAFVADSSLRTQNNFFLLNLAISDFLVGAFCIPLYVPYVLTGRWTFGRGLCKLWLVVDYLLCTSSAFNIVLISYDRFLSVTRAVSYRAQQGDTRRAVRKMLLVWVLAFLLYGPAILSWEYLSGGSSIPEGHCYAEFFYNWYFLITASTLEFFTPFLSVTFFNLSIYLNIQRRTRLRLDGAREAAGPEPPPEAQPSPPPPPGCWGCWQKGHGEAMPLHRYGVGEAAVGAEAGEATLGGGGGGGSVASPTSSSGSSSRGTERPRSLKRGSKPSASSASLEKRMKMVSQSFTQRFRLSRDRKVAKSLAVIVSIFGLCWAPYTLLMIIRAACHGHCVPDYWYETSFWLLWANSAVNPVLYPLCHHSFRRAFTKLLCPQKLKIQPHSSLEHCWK
Chain of Human receptor H2 (P25021 whole entry): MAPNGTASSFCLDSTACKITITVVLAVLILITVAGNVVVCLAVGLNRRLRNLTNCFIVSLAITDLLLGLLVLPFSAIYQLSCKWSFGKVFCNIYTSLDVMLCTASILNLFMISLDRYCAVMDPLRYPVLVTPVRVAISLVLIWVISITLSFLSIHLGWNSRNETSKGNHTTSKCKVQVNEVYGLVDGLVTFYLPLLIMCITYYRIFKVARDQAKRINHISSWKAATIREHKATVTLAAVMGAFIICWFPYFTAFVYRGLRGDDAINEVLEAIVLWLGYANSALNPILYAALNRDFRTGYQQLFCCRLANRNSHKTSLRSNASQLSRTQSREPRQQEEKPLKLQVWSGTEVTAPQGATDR
Chain of Human receptor H4 (Q9H3N8 whole entry): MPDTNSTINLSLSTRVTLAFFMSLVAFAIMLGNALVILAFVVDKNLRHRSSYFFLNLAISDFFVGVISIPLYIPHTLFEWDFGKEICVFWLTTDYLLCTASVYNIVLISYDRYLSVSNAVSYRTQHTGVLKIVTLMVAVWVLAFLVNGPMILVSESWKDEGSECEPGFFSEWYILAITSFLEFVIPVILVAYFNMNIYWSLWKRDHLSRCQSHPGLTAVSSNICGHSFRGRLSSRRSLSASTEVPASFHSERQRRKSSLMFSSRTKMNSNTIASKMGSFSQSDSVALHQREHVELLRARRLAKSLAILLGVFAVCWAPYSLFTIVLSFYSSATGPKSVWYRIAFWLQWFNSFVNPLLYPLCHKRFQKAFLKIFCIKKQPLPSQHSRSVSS
Chain of Human receptor H1 (P35367 whole entry): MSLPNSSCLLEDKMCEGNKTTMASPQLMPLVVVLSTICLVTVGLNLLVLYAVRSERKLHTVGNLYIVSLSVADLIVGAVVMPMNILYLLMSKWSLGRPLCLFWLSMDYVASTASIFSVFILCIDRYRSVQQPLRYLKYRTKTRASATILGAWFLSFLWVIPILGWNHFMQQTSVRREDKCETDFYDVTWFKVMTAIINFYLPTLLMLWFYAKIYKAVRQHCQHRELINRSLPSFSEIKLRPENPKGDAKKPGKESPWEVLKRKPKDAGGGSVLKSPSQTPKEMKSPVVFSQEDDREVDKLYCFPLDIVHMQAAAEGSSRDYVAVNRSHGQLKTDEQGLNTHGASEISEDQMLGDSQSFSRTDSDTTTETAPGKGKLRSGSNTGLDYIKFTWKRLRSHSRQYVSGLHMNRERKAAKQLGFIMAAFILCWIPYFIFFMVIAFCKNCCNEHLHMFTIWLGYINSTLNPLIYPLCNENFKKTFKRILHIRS

For `[11CH3]NC(=O)c1ccc(Oc2ccc3c(c2)CCN(C2CCC2)CC3)nc1` [Compound A, [^11C-N-methyl]-6-(3-cyclobutyl-2,3,4,5-tetrahydro-1H-benzo[d]azepin-7-yloxy)-nicotamide], the Concentration in cerebellum (histamine H3 receptor [1]) was “low”, the “Ratio relative to cerebellum, frontal cortex” value (histamine H3 receptor [1]; 85 min, baseline) was 5.3 and the “Ratio relative to cerebellum, occipital cortex” value (histamine H3 receptor [1]; 85 min, baseline) was 3.8. The “Ratio relative to cerebellum, parietal cortex” value (histamine H3 receptor [1]; 85 min, baseline) was 4.9, the “Ratio relative to cerebellum, striatum” value (histamine H3 receptor [1]; 85 min, baseline) was 9.0 and the “Ratio relative to cerebellum, thalamus” value (histamine H3 receptor [1]; 85 min, baseline) was 3.4. The “Time of peak brain uptake of radioactivity” value (histamine H3 receptor [1]; after administration of the radiotracer) was 25 min, the Regional brain distribution (histamine H3 receptor [1]; higher accumulation in striatum, cortices, thalamus, hypothalamus) was “reflected the known distribution of the histamine H3 receptor” and the Brain entry (histamine H3 receptor [1]; iv 1 minute bolus) was “readily enters the pig brain”.

For `[123I]c1ccc(COCCCc2cnc[nH]2)cc1` [[^123I]iodoproxifan], the “Alteration of brain distribution by selective H3 receptor ligand” value (histamine H3 receptors) is given as “no significant alteration of the brain distribution by selective H3 receptor ligand”.

For `O=C(c1ccc(OCCCc2cnc[nH]2)cc1)C1CC1` [ciproxifan], the “Ratio tissue to cerebellum of Compound A, frontal cortex” value (histamine H3 receptor [2]; [4]) was 1.08, the “Ratio tissue to cerebellum of Compound A, occipital cortex” value (histamine H3 receptor [2]; [4]) was 0.99 and the “Ratio tissue to cerebellum of Compound A, parietal cortex” value (histamine H3 receptor [2]; [4]) was 0.91. The “Ratio tissue to cerebellum of Compound A, striatum” value (histamine H3 receptor [2]; [4]) was 1.22, the “Ratio tissue to cerebellum of Compound A, thalamus” value (histamine H3 receptor [2]; [4]) was 0.72 and the “Effect on Compound A uptake in H3-rich brain regions” value (histamine H3 receptor [2]; escalating dose 0.006, 0.06, 0.6 and 2.0 mg/kg) was “dose-dependent decrease”.

Work on `CNC(=O)c1ccc(Oc2ccc3c(c2)CCN(C2CCC2)CC3)nc1` [unlabelled Compound A] yielded a Ki (Human receptor H2) of over 3.16 µM, a Ki (Human receptor H1) of 2510 nM and a Ki (Human receptor H4) of over 3.16 µM. The “Selectivity over other receptors” value ([3]; H3 versus other receptors) was “high selective over other receptors”, the Ki ([3]; [125I]iodoproxifan as radioligand, read-out: Binding affinity (pKi), human H3 (converted)) was 0.257 nM and the “Effect on specific uptake of radiotracer Compound A” value (histamine H3 receptor [2]; co-administered at 0.005, 0.05 and 0.5 mg/kg) was “specific uptake of radiotracer was blocked”.
